Measured values: publication PMC11314561, “Design and Synthesis of Novel Aminoindazole-pyrrolo[2,3-b]pyridine Inhibitors of IKKα That Selectively Perturb Cellular Non-Canonical NF-κB Signalling” (Molecules, 2024)
Read-outs that look alike come from different tables or passages of the source.

Experiment: In vivo murine PK
Details: mouse, plasma, CD1 mice, 10 mg/kg, mean; for half-life: read-out: Terminal t1/2 (converted)
Method: Ta b l e S2. in vivo murine PK parameters for 6g [SU1349]. In vivo PK studies were performed by Shanghai ChemPartner Co. Ltd. (Shanghai, 201203 CN) Each route of administration involved three CD1 mice all receiving a single dose, with mean values reported. The IV/IP dosing solution was prepared in 10% DMAC+ 10% Solutol HS15+ 80% (15% of HP-β-CD) in water. BQL: Below quantiϐiable limit of 1 ng/mL for SU1349 in CD1 mouse plasma. All BQL data was excluded from mean value concentration and graphing. Plasma concentrations were determined on an LCMSMS-010 (API4000, triple quadruple) instrument using Positive Ion, ESI MS conditions, with deaxamethasone as an internal standard. Intravenous time points were taken at 5 min, 15 min, 30 min, 1, 2, 4, 8, and 24 hours and intraperitoneal time points were taken at 15 min, 30 min, 1, 2, 4, 6, 8, […]
Administration Dose Mean PK parameters
Clearance Terminal Vss Cmax Tmax F

Nc1n[nH]c2ccc(-c3ccnc4[nH]c(-c5ccnc(OCc6ccccc6)c5)cc34)cc12 [Compound 6g [SU1349]]
Cmax (ip, I.P.): 199 ng/mL
Tmax (ip, I.P.): 0.44 h
bioavailability (ip, I.P.): 9.3%
half-life (ip, I.P.): 3.02 h
clearance (iv, I.V.): 16.7 mL/min/kg
half-life (iv, I.V.): 4.18 h
Vd (iv, I.V., read-out: Vss): 0.39 L/kg
